From ChEMBL document CHEMBL1201862, “PubChem BioAssay data set” (2004) come the findings set out here.

Test systems include K562; SN12C; OVCAR-4; NCI-H522; OVCAR-8; UO-31; UACC-62; HOP-92; KM12; ACHN; SF-539; NCI-H23; UACC-257; SW-620; SNB-75; SK-MEL-2; SK-MEL-5; PC-3; NCI/ADR-RES.
Experiment in all cases: inhibition of tumour cell growth, NCI panel, 48 h

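Growth conditions: 96-well plates. Treatment: test compound, 48 hours, 5 concentrations. Analysis: linear interpolation between bracketing concentrations; unreached endpoints set to highest concentration. GI50 is the concentration that inhibits growth by half.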 Activity calls are given as the source filed them. Cut-off read from the data, not from the text of the source: active = GI50 up to about 1.1 µM and inactive = higher.

`COc1ccc(C(=O)C(c2ccc(OC)cc2)C2(O)C(=O)Nc3c(C)cc(Cl)cc32)cc1` (centres undefined): the GI50 was 21.6 µM (inactive) in the assay with K562; 58.1 µM (inactive) in the assay on SN12C; 63.2 µM (inactive) in the assay on OVCAR-4; 28 µM (inactive) with NCI-H522; 92.7 µM (inactive) in the assay on OVCAR-8; > 100 µM (inactive) in the assay on UO-31. The GI50 is 23.2 µM (inactive) with UACC-62; 21.9 µM (inactive) in the assay on HOP-92; > 100 µM (inactive) with KM12; > 100 µM (inactive) in the assay with ACHN; 69.8 µM (inactive) with SF-539; 85.5 µM (inactive) in the assay with NCI-H23. Moreover, the GI50 in the assay with UACC-257 is 55 µM (inactive); in the assay with SW-620, > 100 µM (inactive); in the assay with SNB-75, 33.2 µM (inactive); in the assay with SK-MEL-2 it was > 100 µM (inactive).

For `CN(C(=O)c1ccco1)C(=S)N1CCN(c2ccccc2)CC1`, the GI50 in the assay with K562, in the assay with SN12C, with OVCAR-4, in the assay on NCI-H522, with OVCAR-8 and with UO-31 was > 100 µM (inactive) throughout. Further, the GI50 in the assay with UACC-62, in the assay on HOP-92, with KM12, with SK-MEL-5, in the assay with ACHN and in the assay on SF-539 was > 100 µM (inactive) each time. Further, the GI50 in the assay with NCI-H23, with UACC-257, in the assay on SW-620, with SNB-75 and in the assay on SK-MEL-2 was > 100 µM (inactive) throughout.

On to `NC(CCCCNC(=O)CNC(=O)OCc1ccccc1)C(=O)NC(CCCCNC(=O)CNC(=O)OCc1ccccc1)C(=O)NC(CCCCNC(=O)CNC(=O)OCc1ccccc1)C(=O)NC(CCCCNC(=O)CNC(=O)OCc1ccccc1)C(=O)NC(CCCCNC(=O)CNC(=O)OCc1ccccc1)C(=O)NC(CCCCNC(=O)CNC(=O)OCc1ccccc1)C(=O)O` (centres undefined), for which the GI50 with K562 is > 75 µM (inactive); with SN12C it was > 75 µM (inactive); with OVCAR-4, > 75 µM (inactive); with NCI-H522, 16.9 µM (inactive); in the assay with OVCAR-8, > 75 µM (inactive); in the assay on UO-31, > 75 µM (inactive). In addition, the GI50 in the assay on UACC-62, in the assay on SK-MEL-5, in the assay with ACHN, in the assay on NCI-H23, in the assay with PC-3 and in the assay on UACC-257 was > 75 µM (inactive) each time. Also, the GI50 with SW-620, in the assay with SNB-75 and in the assay with SK-MEL-2 was > 75 µM (inactive) throughout.

For `Cc1ccc(S(=O)(=O)N2CCN(S(=O)(=O)c3ccc(C)cc3)Cc3ccccc3C2)cc1`, the GI50 with K562 was > 100 µM (inactive); with SN12C it was 53.2 µM (inactive); in the assay with OVCAR-4, 18.8 µM (inactive); in the assay on NCI-H522, 21.6 µM (inactive); in the assay with OVCAR-8, 82.6 µM (inactive); in the assay with UO-31 it was > 100 µM (inactive). Also, the GI50 is 10.1 µM (inactive) in the assay on UACC-62; > 100 µM (inactive) with KM12; 29.3 µM (inactive) with SK-MEL-5; > 100 µM (inactive) with NCI/ADR-RES; 36.9 µM (inactive) with ACHN; > 100 µM (inactive) in the assay with SF-539. The GI50 in the assay on NCI-H23 is 57.5 µM (inactive); in the assay on UACC-257 it was 49.8 µM (inactive); with SW-620 it was > 100 µM (inactive); in the assay with SK-MEL-2 it was > 100 µM (inactive).

Regarding `CSC1C=C(C(C)C)CCC1(C)SC` (centres undefined), the GI50 in the assay on K562 is 16.7 µM (inactive); in the assay on SN12C, 16.9 µM (inactive); in the assay with OVCAR-4, 18.1 µM (inactive); in the assay on NCI-H522, 16.3 µM (inactive); in the assay with OVCAR-8 it was 19.4 µM (inactive); in the assay on UO-31, 14.3 µM (inactive). In addition, the GI50 in the assay on UACC-62 is 25.6 µM (inactive); in the assay on HOP-92 it was 16.2 µM (inactive); in the assay with KM12, 14.3 µM (inactive); in the assay on SK-MEL-5, 17.5 µM (inactive); in the assay with ACHN, 18.7 µM (inactive); in the assay on SF-539, 18.7 µM (inactive). Moreover, the GI50 with NCI-H23 is 19.3 µM (inactive); in the assay with UACC-257, 15.9 µM (inactive); in the assay on SW-620, 19.9 µM (inactive); in the assay on SNB-75, 17.6 µM (inactive); in the assay with SK-MEL-2, 17.7 µM (inactive).

As to `c1ccc(SC(Sc2ccccc2)=C2CCC2)cc1`, the GI50 with K562, in the assay with SN12C, in the assay with OVCAR-4, in the assay on NCI-H522, with OVCAR-8 and with UO-31 was > 100 µM (inactive) in each case. In addition, the GI50 in the assay on UACC-62 was 65 µM (inactive); in the assay on HOP-92, 55.3 µM (inactive); in the assay with KM12, > 100 µM (inactive); with SK-MEL-5, > 100 µM (inactive); in the assay on ACHN it was > 100 µM (inactive); with SF-539, > 100 µM (inactive). Moreover, the GI50 is > 100 µM (inactive) in the assay with NCI-H23; > 100 µM (inactive) in the assay with UACC-257; > 100 µM (inactive) in the assay with SW-620; 98.4 µM (inactive) in the assay on SNB-75; > 100 µM (inactive) in the assay with SK-MEL-2.

In the case of `C=CCc1ccc(O)c(-c2cc(C3Oc4c(-c5cc(CC=C)ccc5O)cc(O)cc4[C@@H]3CO)ccc2O)c1` (some centres undefined), the GI50 in the assay with K562 was 15.6 µM (inactive); with SN12C it was 32.9 µM (inactive); in the assay with OVCAR-4 it was 36.9 µM (inactive); in the assay on NCI-H522, 20.1 µM (inactive); with OVCAR-8, 42.4 µM (inactive); in the assay with UO-31, 40.2 µM (inactive). The GI50 with UACC-62 is 30.3 µM (inactive); in the assay with HOP-92 it was 12.2 µM (inactive); in the assay on KM12, 27.4 µM (inactive); with SK-MEL-5, 16 µM (inactive); in the assay on ACHN, 36.2 µM (inactive); in the assay with SF-539, 24 µM (inactive). The GI50 in the assay with NCI-H23 was 23.7 µM (inactive); with UACC-257 it was 73.5 µM (inactive); in the assay with SW-620, 15.7 µM (inactive); with SNB-75 it was 45.9 µM (inactive); in the assay with SK-MEL-2, 18.6 µM (inactive).

For `O=c1c2ccccc2nc(-c2ccccc2Cl)n1NC1OC(CO)C(O)C(O)C1O` (centres undefined), the GI50 in the assay with K562, with SN12C, with OVCAR-4, in the assay on NCI-H522, with OVCAR-8 and in the assay with UO-31 was > 100 µM (inactive) throughout. Moreover, the GI50 in the assay with UACC-62, in the assay with HOP-92, with KM12, in the assay with SK-MEL-5, in the assay on ACHN and in the assay with SF-539 was > 100 µM (inactive) each time. Moreover, the GI50 in the assay on NCI-H23 is > 100 µM (inactive); in the assay on UACC-257, > 100 µM (inactive); in the assay on SW-620, > 100 µM (inactive); in the assay with SNB-75, 97.9 µM (inactive); with SK-MEL-2, > 100 µM (inactive).

For `COc1cc2cc(C(=O)N3CC(CCl)c4c3cc(O)c3ccccc43)[nH]c2c(OC)c1OC` (centres undefined), the GI50 with K562, in the assay with OVCAR-4, in the assay with NCI-H522, in the assay with OVCAR-8, in the assay with UO-31 and with UACC-62 was < 0.005 µM (active) each time. The GI50 in the assay on KM12, in the assay on SK-MEL-5, with NCI/ADR-RES, with ACHN, in the assay on SF-539 and in the assay on NCI-H23 was < 0.005 µM (active) each time. The GI50 in the assay on PC-3, in the assay on UACC-257, in the assay on SW-620, with SNB-75 and in the assay with SK-MEL-2 was < 0.005 µM (active) each time.

For the compound `O=C1C(=Cc2ccc(F)cc2)C(=O)c2ccccc21`, the GI50 in the assay with K562, in the assay on OVCAR-4, in the assay on NCI-H522, in the assay with OVCAR-8, in the assay on UO-31 and in the assay on UACC-62 was > 100 µM (inactive) in each case. Moreover, the GI50 in the assay with HOP-92 was 0.925 µM (active); in the assay on KM12 it was > 100 µM (inactive); with SK-MEL-5, > 100 µM (inactive); in the assay with ACHN it was > 100 µM (inactive); in the assay with SF-539 it was > 100 µM (inactive); in the assay with NCI-H23, > 100 µM (inactive). Also, the GI50 with UACC-257 was > 100 µM (inactive); in the assay on SW-620, > 100 µM (inactive); in the assay on SNB-75, 24.9 µM (inactive); in the assay with SK-MEL-2 it was > 100 µM (inactive).

As for `C/C(=N/O)c1ccc2c(c1)/C(=N/O)c1cc(/C(C)=N/O)ccc1-2`, the GI50 was 17.8 µM (inactive) in the assay on K562; 16.3 µM (inactive) in the assay on SN12C; 16.3 µM (inactive) in the assay with OVCAR-4; 18.9 µM (inactive) with NCI-H522; 16.7 µM (inactive) in the assay with OVCAR-8; 15.1 µM (inactive) with UO-31. Also, the GI50 was 14.2 µM (inactive) in the assay on UACC-62; 26.1 µM (inactive) with HOP-92; 16.3 µM (inactive) in the assay on KM12; 14.9 µM (inactive) in the assay on SK-MEL-5; 8.53 µM (inactive) in the assay on ACHN; 15.5 µM (inactive) in the assay on SF-539. Besides, the GI50 is 12.9 µM (inactive) with NCI-H23; 2.39 µM (inactive) in the assay with UACC-257; 14.5 µM (inactive) in the assay on SW-620; 17.9 µM (inactive) with SNB-75; 23.9 µM (inactive) in the assay on SK-MEL-2.

Consider `CC1=CC(=C(c2ccc(N)c(C)c2)c2ccc(N)c(C)c2)C=CC1=N`, for which the GI50 in the assay with K562 was 2.92 µM (inactive); in the assay on SN12C, 0.33 µM (active); in the assay on OVCAR-4, 10.5 µM (inactive); in the assay on NCI-H522, 3.03 µM (inactive); with OVCAR-8 it was 1.37 µM (inactive); with UO-31 it was 28.3 µM (inactive). For the same compound, the GI50 is 2.69 µM (inactive) with UACC-62; 3.32 µM (inactive) in the assay with HOP-92; 3.24 µM (inactive) in the assay on KM12; 2.07 µM (inactive) in the assay with SK-MEL-5; 8.45 µM (inactive) with ACHN; 2.67 µM (inactive) in the assay on SF-539. Further, the GI50 in the assay with NCI-H23 is 2.97 µM (inactive); in the assay on UACC-257 it was 3 µM (inactive); in the assay on SW-620, 3.8 µM (inactive); with SNB-75, 1.51 µM (inactive); in the assay on SK-MEL-2, 2.73 µM (inactive).
